“And” between values parts separate entries of the source, which are not always exact repeats. Equal values may be shown once. Read-outs that look alike come from different tables or passages of the source.

Results on 13 compounds are retold here after paper PMC2722925 (Biochemistry, 2008).

The target of experiment [1] is T1, EPPasePGM (EPPase PGM domain, residues 69 to 330) (Bombyx mori, UniProt Q7YTB0).
T1 sequence (Q7YTB0 69-330 isoform Q7YTB0-1): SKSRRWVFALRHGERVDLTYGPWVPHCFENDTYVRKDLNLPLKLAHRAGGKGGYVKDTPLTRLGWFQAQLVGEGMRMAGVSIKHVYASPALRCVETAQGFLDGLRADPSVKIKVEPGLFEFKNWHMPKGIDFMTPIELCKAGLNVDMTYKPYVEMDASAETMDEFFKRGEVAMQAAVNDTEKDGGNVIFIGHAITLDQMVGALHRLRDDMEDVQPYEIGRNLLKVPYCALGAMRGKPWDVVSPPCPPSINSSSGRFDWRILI
Nature of the experiment: Phosphatase activity. As to conditions: for Dephosphorylation by EPPasePGM (substrate specificity): 50 nM EPPasePGM, 1 mM compound, pH 7.5, pNPP as positive control, data not shown; for Km: substrate of wild-type EPPasePGM; for Km / kcat: pH 7.5, 37 °C; for kcat: substrate turnover by wild-type EPPasePGM, 50 nM enzyme.

Experiment [2] concerns EPPase. Nature of the experiment: Phosphatase activity of native or recombinant full-length EPPase. It is filed as biochemical, Bombyx mori. To be noted: E22P versus pTyr-peptide.
For experiment [3], the system named is EPPase. To be noted: native or recombinant full-length EPPase; ref [9]; cited from earlier work.
In experiment [4] the target is T2, EPPasePGM (Bombyx mori, UniProt Q7YTB0).
T2 sequence (Q7YTB0 69-330 isoform Q7YTB0-1): T1 sequence (Q7YTB0 69-330 isoform Q7YTB0-1)
Kind of experiment: Inhibition of EPPasePGM pNPP hydrolysis. It is filed as biochemical.

Experiment [5] concerns the target Sts-1PGM (Mus musculus, UniProt Q8BGG7). Kind of experiment: Phosphatase activity. It counts as biochemical. To be noted: for Km: substrate of Sts-1PGM; for kcat: substrate turnover by Sts-1PGM.
In experiment [6] the target is EPPasePGM K196S (Bombyx mori, UniProt Q7YTB0, K526S). It counts as biochemical.
The target in experiment [7] is T3, EPPasePGM K292S (Bombyx mori, UniProt Q7YTB0, K622S). It counts as biochemical.
Experiment [8] addresses T3, EPPasePGM K292S. Kind of experiment: biochemical.
Experiment [9] deals with EPPasePGM K196D (Bombyx mori, UniProt Q7YTB0, K526D). Kind of experiment: Phosphatase activity of EPPasePGM K196D mutant. It counts as biochemical.
Setting [10] is: IC50, 1 mM pNPP, 50 nM EPPasePGM, 37 °C, pH 7.5.
Where [11] appears, read: IC50, 1 mM pNPP, 50 nM EPPasePGM, 37 °C, text values in mM.

Chain of Sts-1PGM (Q8BGG7 369-638 limits assumed): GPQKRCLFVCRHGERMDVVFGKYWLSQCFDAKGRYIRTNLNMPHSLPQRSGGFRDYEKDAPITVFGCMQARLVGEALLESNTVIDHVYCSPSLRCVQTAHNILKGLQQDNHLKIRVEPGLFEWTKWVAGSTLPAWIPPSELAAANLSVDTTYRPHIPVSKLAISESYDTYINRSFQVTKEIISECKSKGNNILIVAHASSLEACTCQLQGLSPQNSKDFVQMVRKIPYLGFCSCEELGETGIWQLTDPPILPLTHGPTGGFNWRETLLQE
Chain of EPPasePGM K196S (Q7YTB0 399-660 K526S): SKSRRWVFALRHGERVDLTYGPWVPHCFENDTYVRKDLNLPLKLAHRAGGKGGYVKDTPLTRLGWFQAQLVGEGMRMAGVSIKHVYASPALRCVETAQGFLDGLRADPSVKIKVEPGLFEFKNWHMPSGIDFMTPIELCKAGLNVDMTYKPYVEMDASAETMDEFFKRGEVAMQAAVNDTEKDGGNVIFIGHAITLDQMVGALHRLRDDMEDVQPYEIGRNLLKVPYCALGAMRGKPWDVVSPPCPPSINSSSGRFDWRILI
T3 sequence (Q7YTB0 399-660 K622S): as the sequence (Q7YTB0 399-660 K526S) above, with S128K, K224S counted along it
Chain of EPPasePGM K196D (Q7YTB0 399-660 K526D): as the sequence (Q7YTB0 399-660 K526S) above, with S128D counted along it

For `O=P(O)(O)Oc1cccc2ccccc12` [1-naphtyl phosphate], the “Dephosphorylation by EPPasePGM (substrate specificity)” value (from here on “Dephosphorylation by EPPasePGM”) in experiment [1] is given as “failed to dephosphorylate”.

Take `C[C@H](C(CCC(C)(C)O)OP(=O)(O)O)[C@H]1CCC2(O)C3=CC(=O)[C@@H]4C[C@@H](O)[C@@H](O)C[C@]4(C)[C@H]3CC[C@]12C` (stereo partly drawn) [E22P, ecdysone 22-phosphate]: in experiment [2], the “kcat for E22P relative to pTyr-peptide (times lower)” value was 8. Besides, in experiment [3], the Km is 5.9 µM and the kcat was 0.94 s⁻¹.

For the compound `O=C(O)[C@H](O)[C@@H](O)C(=O)O` [L-tartrate], in [4] (concentrations as high as 100 mM), the “Inhibition of pNPP hydrolysis by EPPasePGM” value is given as “did not inhibit”.

On to `O=P(O)(O)O` [Phosphate], for which the Ki in experiment [4] was 25800 µM. The values for the IC50 in experiment [4] (setting [10]) and in experiment [4] (setting [11]) were 47.1 mM and 47 ± 11 mM, respectively.

Regarding `C[C@]12C=CC(=O)C=C1CC[C@@H]1[C@@H]2[C@@H](O)C[C@@]2(C)[C@H]1CC[C@]2(O)C(=O)COP(=O)([O-])[O-].[Na+].[Na+]` [Prednisolone 21P, prednisolone 21-phosphate disodium salt], the Km in [5] came to 450 ± 90 µM; in [6], 1060 ± 240 µM; in experiment [7] it was 510 ± 230 µM; in [1], 650 ± 170 µM. The kcat came out at 0.15 s⁻¹ in [5], 6.1 s⁻¹ in experiment [6], 4.2 s⁻¹ in experiment [7] and 5.9 s⁻¹ in experiment [1].

`[O]=[W](=[O])([OH])[OH]` [Tungstate]: the values for the half-inhibitory concentration (IC50) in [8] and in [4] were 70 µM and 0.052 mM, respectively. Moreover, affinity in experiment [4] was put at a Ki of 34 µM.

With `[O]=[V]([OH])([OH])[OH]` [Vanadate], the affinity in experiment [4] corresponds to a Ki of 1900 µM. Further, the IC50 in experiment [4] (setting [10]) turned out to be 2.91 mM; in experiment [4] (setting [11]), 2.9 ± 0.43 mM.

With `O=C(CO)[C@@H](O)[C@H](O)[C@H](O)COP(=O)(O)O` [fructose-6-phosphate], in experiment [1], the “Dephosphorylation by EPPasePGM” value is listed as “failed to dephosphorylate”.

Turning to `O=[N+]([O-])c1ccc(OP(=O)(O)O)cc1` [pNPP, para-nitrophenylphosphate], the Km was 2500 ± 200 µM in experiment [9]; 500 ± 70 µM in experiment [5]; 13100 µM in experiment [3]; 2700 ± 160 µM in [6]; 2400 ± 200 µM in experiment [7]; 1900 ± 200 µM in experiment [1]. In addition, the kcat in [9] was 2.4 s⁻¹; in [5], 70.1 s⁻¹; in experiment [3], 135 s⁻¹; in experiment [6], 5.0 s⁻¹; in [7], 6.3 s⁻¹; in [1], 11.7 ± 0.6 s⁻¹ and 11.7 s⁻¹. Moreover, in experiment [1] (pNPP hydrolysis), the “kcat of EPPasePGM relative to Sts-1PGM (fold slower)” value turned out to be 6. In addition, the “kcat/Km of EPPasePGM relative to Sts-1PGM (fold slower)” value in [1] (pNPP hydrolysis) is 20.

Regarding `C[C@H]1C[C@H]2[C@@H]3CCC4=CC(=O)C=C[C@]4(C)[C@@]3(F)[C@@H](O)C[C@]2(C)[C@@]1(O)C(=O)COP(=O)([O-])[O-].[Na+].[Na+]` [β-Methasone 21P, β-methasone 21-phosphate disodium salt], in experiment [1], the Km was determined as 730 ± 320 µM and the kcat worked out at 10.2 s⁻¹.

Turning to `O=P(O)(O)OC[C@H]1O[C@@H](O)[C@H](O)[C@@H](O)[C@@H]1O` [β-glucose-6-phosphate], in experiment [1], the “Dephosphorylation by EPPasePGM” value is reported as “failed to dephosphorylate”.

On to `O=P(O)(O)OC(CO)CO` [β-phospho-glycerol], for which the “Dephosphorylation by EPPasePGM” value in experiment [1] was “failed to dephosphorylate”.

As to `O=P(O)(O)OC[C@H]1O[C@@H](O)[C@H](O)[C@@H]1O` [β-ribose-5-phosphate], in experiment [1], the “Dephosphorylation by EPPasePGM” value was “failed to dephosphorylate”.
